Results as given in US8338565B2, “Macrocyclic compounds for inhibition of tumor necrosis factor alpha” (Ensemble Therapeutics Corporation, priority 2008, dated 2012).
Numbered stars: 1 amine (or outer) side, 2 acyl side, 3 side chain; on linkers, the order of the positions; unused ones are H or OH. Bridge positions count the residues as written; N and C are the ends. Square brackets hold non-standard residues; d marks the D form. Peptide text beside a SMILES is read from it. * marks the point of attachment. Tartaroyl(2R,3R-(OAc)2) = CC(=O)O[C@@H](C(=O)[*:1])[C@@H](OC(C)=O)C(=O)[*:2]; Phe(4-CF3) = N[C@@H](Cc1ccc(C(F)(F)F)cc1)C(=O)O; Phe(4-COOH) = N[C@@H](Cc1ccc(C(=O)O)cc1)C(=O)O; Phe(2,4-Cl2) = N[C@@H](Cc1ccc(Cl)cc1Cl)C(=O)O; Bip = N[C@@H](Cc1ccc(-c2ccccc2)cc1)C(=O)O; dBip = N[C@H](Cc1ccc(-c2ccccc2)cc1)C(=O)O; dPhe(4-NH2) = Nc1ccc(C[C@@H](N)C(=O)O)cc1; dPhe(2-CN) = N#Cc1ccccc1C[C@@H](N)C(=O)O; Phe(4-NH2) = Nc1ccc(C[C@H](N)C(=O)O)cc1; d(hPhe) = N[C@H](CCc1ccccc1)C(=O)O; dNMeF = CN[C@H](Cc1ccccc1)C(=O)O; d2Thi = N[C@H](Cc1cccs1)C(=O)O; Suc = O=C(CCC(=O)[*:2])[*:1]; NHCH2CH2OH = OCCN*

These compounds were tested against T1, TNFα / TNFα receptor (TNFα R1/Fc) (Homo sapiens, UniProt P01375) (assay: Inhibition of binding of TNFα to the TNFα receptor (plate ELISA competition)). Settings: Activity (IC50, inhibition of TNFα binding to TNFα R1/Fc), Table 2.
T1 construct: purchased R&D Systems
T1 sequence (P01375 77-233 limits assumed, species assumed): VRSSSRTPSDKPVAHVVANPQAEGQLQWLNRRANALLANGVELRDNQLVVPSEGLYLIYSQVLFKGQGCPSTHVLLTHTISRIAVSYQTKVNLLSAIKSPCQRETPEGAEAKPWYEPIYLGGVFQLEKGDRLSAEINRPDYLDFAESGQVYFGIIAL
Procedure, shortened: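 Compound dilutions were preincubated 30 min at RT with 8.33 nM TNFα R1/Fc in PBST with 2% DMSO, then added to wells coated with 15 nM TNFα for 30 min. Bound receptor was detected with HRP anti-human Fc and TMB, read as A450.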
`O=C1COc2ccc(cc2)CC(C(=O)O)NC(=O)C(Cc2ccccc2)NC(=O)C(Cc2ccc([N+](=O)[O-])cc2)NC(=O)C(Cc2cccs2)N1` (stereo not shown) [Compound 358] showed an IC50 of over 100 µM.
`O=C1COc2ccc(cc2)C[C@@H](C(=O)N[C@H](Cc2ccccc2)C(=O)O)NC(=O)[C@H](CCc2ccccc2)NC(=O)[C@@H](Cc2ccc(-c3ccccc3)cc2)NC(=O)[C@H](Cc2cccs2)N1` [Compound 480] showed an IC50 of 10 to 30 µM.

Same assay, conditions: Table 2; read-out: Activity (IC50, inhibition of TNFα binding to TNFα R1/Fc)
For `O=C1N[C@H](Cc2ccccc2)C(=O)N[C@@H](C(=O)O)Cc2ccc(cc2)NC(=O)[C@H](O)[C@@H](O)C(=O)N[C@H](Cc2ccccc2)C(=O)N[C@H]1Cc1ccc(Cl)cc1Cl` [Compound 243], the IC50 was 30 to 100 µM.
With `O=C1N[C@@H](C(=O)O)Cc2ccc(cc2)NC(=O)[C@H](O)[C@@H](O)C(=O)N[C@H](Cc2cccs2)C(=O)N[C@H](Cc2ccc(-c3ccccc3)cc2)C(=O)N[C@H]1Cc1ccccc1` [Compound 281] the IC50 was over 100 µM.
Work on `O=C(O)CNC(=O)[C@@H]1Cc2ccc(cc2)NC(=O)CCC(=O)N[C@H](Cc2ccccc2)C(=O)N[C@@H](Cc2ccc(-c3ccccc3)cc2)C(=O)N[C@H](CCc2ccccc2)C(=O)N1` [Compound 462] ([dF][Bip][d(hPhe)][Phe(4-NH2)]G-OH; linker N-4 via Suc) yielded an IC50 of over 100 µM.
Work on `Cc1ccc(C[C@H]2NC(=O)[C@H](O)[C@@H](O)C(=O)Nc3ccc(cc3)C[C@@H](C(=O)O)NC(=O)[C@@H](Cc3ccccc3)NC(=O)[C@H](Cc3ccc(-c4ccccc4)cc3)NC2=O)cc1` [Compound 264] yielded an IC50 of over 100 µM.
In the case of `O=C1N[C@H](CCc2ccccc2)C(=O)N[C@@H](C(=O)O)Cc2ccc(cc2)NC(=O)[C@H](O)[C@@H](O)C(=O)N[C@H](Cc2cccs2)C(=O)N[C@H]1Cc1ccc(Br)cc1` [Compound 238], the IC50 is reported as under 10 µM.
`CC(=O)O[C@H]1C(=O)Nc2ccc(cc2)C[C@H](C(=O)O)NC(=O)[C@@H](Cc2ccccc2)NC(=O)[C@H](Cc2ccc(Cl)cc2Cl)NC(=O)[C@@H](Cc2cccs2)NC(=O)[C@@H]1OC(C)=O` [Compound 234] ([d2Thi][Phe(2,4-Cl2)][dF][dPhe(4-NH2)]-OH; linker N-4 via Tartaroyl(2R,3R-(OAc)2)) gave an IC50 of over 100 µM.
`O=C1CCC(=O)N[C@H](Cc2cccs2)C(=O)N[C@@H](Cc2ccc(-c3ccccc3)cc2)C(=O)N[C@H](Cc2ccccc2)C(=O)N[C@H](C(=O)NCCO)Cc2ccc(cc2)N1` [Compound 205] ([d2Thi][Bip][dF][Phe(4-NH2)]-NHCH2CH2OH; linker N-4 via Suc) showed an IC50 of over 100 µM.
`CC(=O)O[C@H]1C(=O)Nc2ccc(cc2)C[C@H](C(=O)N[C@@H](Cc2ccccc2)C(=O)O)NC(=O)[C@@H](Cc2ccccc2)NC(=O)[C@H](Cc2ccc(-c3ccccc3)cc2)NC(=O)[C@@H](Cc2cccs2)NC(=O)[C@@H]1OC(C)=O` [Compound 394] ([d2Thi][Bip][dF][dPhe(4-NH2)]F-OH; linker N-4 via Tartaroyl(2R,3R-(OAc)2)) was tested, and the IC50 was under 10 µM.
`COc1cccc(C[C@@H]2NC(=O)COc3ccc(cc3)C[C@@H](C(=O)O)NC(=O)[C@H](CCc3ccccc3)NC(=O)[C@@H](Cc3ccc(-c4ccccc4)cc3)NC2=O)c1` [Compound 680] showed an IC50 of under 10 µM.
Compound `O=C(O)CN(Cc1ccccc1)C(=O)[C@@H]1Cc2ccc(cc2)OCC(=O)N[C@@H](Cc2cccs2)C(=O)N[C@H](Cc2ccc(-c3ccccc3)cc2)C(=O)N[C@@H](Cc2ccccc2)C(=O)N1` [Compound 392] has an IC50 of 10 to 30 µM.
`O=C1CCC(=O)N[C@H](CCc2ccccc2)C(=O)N[C@@H](Cc2ccc(-c3ccccc3Cl)cc2)C(=O)N[C@H](Cc2ccccc2)C(=O)N[C@H](C(=O)O)Cc2ccc(cc2)N1` [Compound 170] was tested, and the IC50 was 30 to 100 µM.
`N#Cc1ccccc1C[C@H]1NC(=O)CCC(=O)Nc2ccc(cc2)C[C@@H](C(=O)O)NC(=O)[C@@H](Cc2ccccc2)NC(=O)[C@H](Cc2ccc(C(F)(F)F)cc2)NC1=O` [Compound 129] ([dPhe(2-CN)][Phe(4-CF3)][dF][Phe(4-NH2)]-OH; linker N-4 via Suc) gave an IC50 of 30 to 100 µM.
With `O=C1CCC(=O)N[C@H](Cc2cccs2)C(=O)N[C@@H](Cc2ccc(-c3ccccc3)cc2)C(=O)N[C@@H](Cc2ccc(O)cc2)C(=O)N[C@H](C(=O)O)Cc2ccc(cc2)N1` [Compound 58] ([d2Thi][Bip]Y[Phe(4-NH2)]-OH; linker N-4 via Suc) the IC50 was over 100 µM.
`O=C(O)[C@@H]1Cc2ccc(cc2)NC(=O)[C@H](O)[C@@H](O)C(=O)N[C@H](Cc2cccs2)C(=O)N[C@@H](Cc2ccc(-c3ccccc3)cc2)C(=O)N[C@@H](Cc2ccccc2)C(=O)N1` [Compound 268] showed an IC50 of over 100 µM.
`O=C1COc2ccc(cc2)C[C@@H](C(=O)O)NC(=O)[C@@H](CCc2ccccc2)NC(=O)[C@H](Cc2ccc(-c3ccccc3)cc2)NC(=O)[C@@H](CCc2ccccc2)N1` [Compound 144] gave an IC50 of 10 to 30 µM.
Work on `CC(C)(C)OC(=O)CC[C@@H]1NC(=O)[C@@H](Cc2ccc(-c3ccccc3)cc2)NC(=O)[C@H](Cc2cccs2)NC(=O)COc2ccc(cc2)C[C@@H](C(=O)O)NC1=O` [Compound 349] yielded an IC50 of 10 to 30 µM.
`COc1ccc(C[C@H]2NC(=O)COc3ccc(cc3)C[C@@H](C(=O)O)NC(=O)[C@@H](CCc3ccccc3)NC(=O)[C@H](Cc3ccc(-c4ccccc4)cc3)NC2=O)cc1` [Compound 522] showed an IC50 of over 100 µM.
`CC(C)(NC(=O)[C@@H]1Cc2ccc(cc2)NC(=O)[C@H](O)[C@@H](O)C(=O)N[C@H](Cc2cccs2)C(=O)N[C@@H](Cc2ccc(-c3ccccc3)cc2)C(=O)N[C@H](Cc2ccccc2)C(=O)N1)C(=O)O` [Compound 176] showed an IC50 of over 100 µM.
`CN1C(=O)[C@H](Cc2ccc(-c3ccccc3)cc2)NC(=O)[C@@H](Cc2cccs2)NC(=O)CCC(=O)Nc2ccc(cc2)C[C@@H](C(=O)O)NC(=O)[C@H]1Cc1ccccc1` [Compound 57] ([d2Thi][Bip][dNMeF][Phe(4-NH2)]-OH; linker N-4 via Suc) gave an IC50 of over 100 µM.
Compound `N[C@@H]1CC(=O)N[C@H](Cc2cccs2)C(=O)N[C@@H](Cc2ccc(-c3ccccc3)cc2)C(=O)N[C@H](Cc2ccccc2)C(=O)N[C@H](C(=O)O)Cc2ccc(cc2)NC1=O` [Compound 374] has an IC50 of over 100 µM.
Work on `O=C1CNC(=O)c2ccc(cc2)C[C@@H](C(=O)O)NC(=O)[C@@H](Cc2ccccc2)NC(=O)[C@H](Cc2ccc(-c3ccccc3)cc2)NC(=O)[C@@H](CCc2ccccc2)N1` [Compound 247] (G[d(hPhe)][Bip][dF][Phe(4-COOH)]-OH; lactam N-5) yielded an IC50 of over 100 µM.
`O=C1N[C@H](Cc2ccccc2)C(=O)N[C@@H](C(=O)O)Cc2ccc(cc2)NC(=O)[C@H](O)[C@@H](O)C(=O)N[C@H](Cc2ccccc2)C(=O)N[C@H]1Cc1ccc(-c2ccccc2)cc1` [Compound 241] was tested, and the IC50 was 30 to 100 µM.
`O=C(O)CC[C@@H]1NC(=O)[C@H](Cc2ccc(-c3ccccc3)cc2)NC(=O)[C@@H](Cc2cccs2)NC(=O)CCC(=O)Nc2ccc(cc2)C[C@@H](C(=O)O)NC1=O` [Compound 68] ([d2Thi][Bip]E[Phe(4-NH2)]-OH; linker N-4 via Suc) gave an IC50 of over 100 µM.
`O=C(O)[C@@H]1Cc2ccc(cc2)NC(=O)[C@H](O)[C@@H](O)C(=O)N[C@H](Cc2cccs2)C(=O)N[C@H](Cc2ccc(-c3ccccc3)cc2)C(=O)N[C@@H](Cc2ccccc2)C(=O)N1` [Compound 274] was tested, and the IC50 was over 100 µM.
Compound `O=C(O)CCNC(=O)[C@@H]1Cc2ccc(cc2)NC(=O)[C@H](O)[C@@H](O)C(=O)N[C@H](Cc2cccs2)C(=O)N[C@@H](Cc2ccc(-c3ccccc3)cc2)C(=O)N[C@H](Cc2ccccc2)C(=O)N1` [Compound 175] has an IC50 of under 10 µM.
With `O=C1COc2ccc(cc2)C[C@@H](C(=O)N[C@H](CCc2ccccc2)C(=O)O)NC(=O)[C@H](Cc2ccccc2F)NC(=O)[C@@H](Cc2ccc(-c3ccccc3)cc2)NC(=O)[C@H](Cc2ccncc2)N1` [Compound 742] the IC50 was under 10 µM.
Compound `O=C1COc2ccc(cc2)C[C@@H](C(=O)O)NC(=O)[C@H](Cc2ccccc2)NC(=O)[C@H](Cc2ccc(Cl)cc2Cl)NC(=O)[C@H](Cc2cccs2)N1` [Compound 367] has an IC50 of over 100 µM.
Compound `O=C1COc2ccc(cc2)C[C@@H](C(=O)O)NC(=O)[C@@H](CCc2ccccc2)NC(=O)[C@H](Cc2ccc(-c3ccccc3)cc2)NC(=O)C(c2ccc(Br)cc2)N1` (stereo partly shown) [Compound 517] has an IC50 of 10 to 30 µM.
`O=C1COc2ccc(cc2)C[C@@H](C(=O)NCCCS(=O)(=O)O)NC(=O)[C@H](CCc2ccccc2)NC(=O)[C@@H](Cc2ccc(-c3ccccc3)cc2)NC(=O)[C@H](Cc2cccs2)N1` [Compound 603] was tested, and the IC50 was over 100 µM.
With `O=C1CCC(=O)N[C@H](Cc2cccs2)C(=O)N[C@H](Cc2ccc(-c3ccccc3)cc2)C(=O)N[C@@H](Cc2ccccc2)C(=O)N[C@@H](C(=O)O)Cc2ccc(cc2)N1` [Compound 503] ([d2Thi][dBip]F[dPhe(4-NH2)]-OH; linker N-4 via Suc) the IC50 was over 100 µM.
Compound `O=C1CCC(=O)N[C@H](Cc2cccs2)C(=O)N[C@@H](Cc2ccc(-c3ccccc3)cc2)C(=O)N[C@H](CO)C(=O)N[C@H](C(=O)O)Cc2ccc(cc2)N1` [Compound 61] ([d2Thi][Bip][dS][Phe(4-NH2)]-OH; linker N-4 via Suc) has an IC50 of over 100 µM.
`O=C1COc2ccc(cc2)C[C@@H](C(=O)N[C@H](CCc2ccccc2)C(=O)O)NC(=O)[C@H](CCc2ccccc2)NC(=O)[C@@H](Cc2ccc(-c3ccccc3)cc2)NC(=O)[C@H](Cc2ccncc2)N1` [Compound 619] was tested, and the IC50 was under 10 µM.
`C[C@@H](NC(=O)[C@@H]1Cc2ccc(cc2)OCC(=O)N[C@@H](Cc2ccc(-c3ccccc3)cc2)C(=O)N[C@H](Cc2ccc(-c3ccccc3)cc2)C(=O)N[C@@H](CCc2ccccc2)C(=O)N1)C(=O)O` [Compound 577] was tested, and the IC50 was under 10 µM.
`O=C(O)[C@H](Cc1ccccc1)NC(=O)[C@@H]1Cc2ccc(cc2)NC(=O)[C@H](O)[C@@H](O)C(=O)N[C@@H](Cc2cccs2)C(=O)N[C@H](Cc2ccc(-c3ccccc3)cc2)C(=O)N[C@@H](Cc2ccccc2)C(=O)N1` [Compound 435] gave an IC50 of under 10 µM.
In the case of `O=C1CCC(=O)N[C@H](CCc2ccccc2)C(=O)N[C@@H](Cc2ccc(C(F)(F)F)cc2)C(=O)N[C@H](Cc2ccccc2)C(=O)N[C@@H](C(=O)N[C@H](Cc2ccccc2)C(=O)O)Cc2ccc(cc2)N1` [Compound 13] ([d(hPhe)][Phe(4-CF3)][dF][dPhe(4-NH2)][dF]-OH; linker N-4 via Suc), the IC50 is reported as over 100 µM.
